Measured values published in ChEMBL document CHEMBL3301562, “MMV Box screening against Plasmodium falciparum protein kinases and aminoacyl tRNA synthetases”.
pIC50: −log10 of the molar value.

Legend:
Assay type in all cases: functional
[1] = biological target: T1, Calcium-dependent protein kinase 4 (Plasmodium falciparum (isolate 3D7), UniProt Q8IBS5); experiment: MMV: CDPK4 Protein kinase inhibition assay using recombinant PfCDPK4, syntide2 peptide substrate, ATP and KinaseGlo to measure % inhibition at 1 uM MMV box compound.
T1 sequence (Q8IBS5 whole entry): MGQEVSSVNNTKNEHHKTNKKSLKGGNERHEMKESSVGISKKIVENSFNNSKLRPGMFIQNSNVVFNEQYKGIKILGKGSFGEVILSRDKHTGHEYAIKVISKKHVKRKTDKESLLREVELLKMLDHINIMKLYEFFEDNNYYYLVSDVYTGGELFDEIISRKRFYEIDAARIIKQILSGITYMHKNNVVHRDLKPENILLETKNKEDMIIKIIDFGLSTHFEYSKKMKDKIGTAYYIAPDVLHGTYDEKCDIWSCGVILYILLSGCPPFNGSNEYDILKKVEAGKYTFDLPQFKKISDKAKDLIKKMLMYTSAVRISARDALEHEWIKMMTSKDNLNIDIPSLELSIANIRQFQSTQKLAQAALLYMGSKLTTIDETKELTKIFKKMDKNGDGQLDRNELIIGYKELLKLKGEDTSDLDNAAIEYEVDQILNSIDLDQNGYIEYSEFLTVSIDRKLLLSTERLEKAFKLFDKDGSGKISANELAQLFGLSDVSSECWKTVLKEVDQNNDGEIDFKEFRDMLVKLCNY

[2] = biological target: T2, Putative uncharacterized protein pk7 (Plasmodium falciparum, UniProt O96214); experiment: Final concentrations were 1 uM ATP, 2 mM DTT, 20 mM MgCl2, 2 mM MnCl2, 0.01% BSA, and 6 ug/ml PK7, in a buffer of 20 mM Tris-HCl (pH 7.5). The enzyme itself was the only substrate present (since autophosphorylation occurs); 100 uM 1NA-PP1 was used as a control inhibitor. Incubation time was 3 hours.
T2 sequence (O96214 whole entry): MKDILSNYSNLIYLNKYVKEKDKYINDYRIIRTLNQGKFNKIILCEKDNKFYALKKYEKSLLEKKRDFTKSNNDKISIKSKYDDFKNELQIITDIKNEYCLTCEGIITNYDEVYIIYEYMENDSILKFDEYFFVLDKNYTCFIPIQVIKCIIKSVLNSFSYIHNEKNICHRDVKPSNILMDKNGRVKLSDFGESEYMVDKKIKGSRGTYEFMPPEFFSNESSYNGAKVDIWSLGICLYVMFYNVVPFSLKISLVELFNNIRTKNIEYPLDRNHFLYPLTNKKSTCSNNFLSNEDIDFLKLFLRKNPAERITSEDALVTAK

Lysine--tRNA ligase = Lysine--tRNA ligase (Plasmodium falciparum (isolate 3D7), UniProt Q8IDJ8); experiment: MMV: KRS recombinant Plasmodium falciparum Lysyl-tRNA-synthetase, assay with yeast tRNA, ATP, and lysine and 3 uM MMV malaria box compound, assay read out with kinase glo as % inhibition.
[3] = biological target: Calcium-dependent protein kinase 1 (Plasmodium falciparum, UniProt P62344); experiment: MMV: CDPK1 Protein kinase inhibition assay using recombinant PfCDPK1, syntide 2 peptide substrate, ATP and KinaseGlo to measure % inhibition at 1 uM MMV box compound.
Proline--tRNA ligase = biological target: T3, Proline--tRNA ligase (Plasmodium falciparum (isolate 3D7), UniProt Q8I5R7); experiment: MMV: ProRS recombinant Plasmodium falciparum Prolyl-tRNA-synthetase, assay with yeast tRNA, ATP, and proline and 3 uM MMV malaria box compound, assay read out with kinase glo as % inhibition.
T3 sequence (Q8I5R7 whole entry): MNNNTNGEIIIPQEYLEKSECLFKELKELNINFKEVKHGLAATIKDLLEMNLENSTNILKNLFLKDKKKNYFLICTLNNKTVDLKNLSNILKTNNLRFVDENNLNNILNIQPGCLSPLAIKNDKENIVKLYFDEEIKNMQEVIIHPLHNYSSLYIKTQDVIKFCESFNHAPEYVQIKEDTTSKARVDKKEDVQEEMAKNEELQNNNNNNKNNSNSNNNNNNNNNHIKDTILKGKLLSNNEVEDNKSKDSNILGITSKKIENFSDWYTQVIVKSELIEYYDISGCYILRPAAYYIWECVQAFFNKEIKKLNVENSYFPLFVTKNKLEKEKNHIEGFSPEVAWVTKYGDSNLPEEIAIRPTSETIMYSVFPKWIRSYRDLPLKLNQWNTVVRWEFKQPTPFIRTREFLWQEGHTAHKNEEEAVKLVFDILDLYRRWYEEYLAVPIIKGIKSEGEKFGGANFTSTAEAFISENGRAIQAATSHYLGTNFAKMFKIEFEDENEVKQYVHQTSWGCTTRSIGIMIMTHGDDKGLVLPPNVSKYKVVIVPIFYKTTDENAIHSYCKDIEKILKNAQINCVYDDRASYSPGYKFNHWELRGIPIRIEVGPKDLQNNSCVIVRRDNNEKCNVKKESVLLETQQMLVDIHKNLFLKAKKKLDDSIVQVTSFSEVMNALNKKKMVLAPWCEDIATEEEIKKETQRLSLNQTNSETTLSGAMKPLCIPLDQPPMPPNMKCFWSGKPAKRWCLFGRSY

[4] = biological target: T4, Mitogen-activated protein kinase (Plasmodium falciparum, UniProt Q25917); experiment: Final concentrations were 1 uM ATP, 0.5 mM DTT, 1 mM MgCl2, 0.5 mg/mL BSA, and 10 ug/ml MAP2 in a buffer of 50 mM HEPES (pH 7.0). 0.5 mg/mL histone III-S served as the substrate (13); 100 uM AMP-PNP, an ATP analog, was used as a control inhibitor. Incubation time was 4 hours.
T4 sequence (Q25917 whole entry): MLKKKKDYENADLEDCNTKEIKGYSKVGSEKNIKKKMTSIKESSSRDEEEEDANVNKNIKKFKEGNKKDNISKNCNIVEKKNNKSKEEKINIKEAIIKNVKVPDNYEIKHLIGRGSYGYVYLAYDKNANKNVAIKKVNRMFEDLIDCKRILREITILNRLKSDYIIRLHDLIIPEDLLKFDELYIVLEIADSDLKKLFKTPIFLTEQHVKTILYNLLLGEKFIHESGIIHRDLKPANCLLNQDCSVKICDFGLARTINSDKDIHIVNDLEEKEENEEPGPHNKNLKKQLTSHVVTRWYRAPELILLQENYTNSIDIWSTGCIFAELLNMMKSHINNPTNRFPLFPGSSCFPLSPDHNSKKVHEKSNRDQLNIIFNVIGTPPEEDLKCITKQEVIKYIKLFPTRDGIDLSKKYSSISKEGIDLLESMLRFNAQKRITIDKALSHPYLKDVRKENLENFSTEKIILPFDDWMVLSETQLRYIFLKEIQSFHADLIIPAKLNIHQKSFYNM

[5] = biological target: T5, Cdk-related protein kinase 6 (Plasmodium falciparum, UniProt O77239); experiment: Final concentrations were 1.5 uM ATP, 5 mM MnCl2, and 15 ug/ml PK6 in a buffer of 100 mM Tris-HCl (pH 7.5). 50 ug/mL MBP was provided as the substrate; 10 uM staurosporine was used as a control inhibitor. Incubation time was 3 hours and 40 minutes.The catalytic activity of each kinase was considered proportional to ATP consumed, as determined from measurements of residual [ATP] with the luciferase-based reagent Kinase-Glo (Promega) following incubation. Luminescence (proportional to residual [ATP]) was measured on the plate readers FLx800 (BioTek Instruments, Winooski, VT, USA) and MicroBeta2.
T5 sequence (O77239 whole entry): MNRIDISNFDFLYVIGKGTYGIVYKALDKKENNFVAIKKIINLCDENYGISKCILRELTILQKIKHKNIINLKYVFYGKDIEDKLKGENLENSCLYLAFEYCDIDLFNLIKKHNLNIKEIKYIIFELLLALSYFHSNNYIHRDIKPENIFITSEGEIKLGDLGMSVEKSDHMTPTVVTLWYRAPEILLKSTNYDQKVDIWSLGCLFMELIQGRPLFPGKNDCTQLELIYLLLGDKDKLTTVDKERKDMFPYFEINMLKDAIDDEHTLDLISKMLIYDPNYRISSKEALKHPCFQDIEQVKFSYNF

Calcium-dependent protein kinase 1, sequence (P62344 whole entry): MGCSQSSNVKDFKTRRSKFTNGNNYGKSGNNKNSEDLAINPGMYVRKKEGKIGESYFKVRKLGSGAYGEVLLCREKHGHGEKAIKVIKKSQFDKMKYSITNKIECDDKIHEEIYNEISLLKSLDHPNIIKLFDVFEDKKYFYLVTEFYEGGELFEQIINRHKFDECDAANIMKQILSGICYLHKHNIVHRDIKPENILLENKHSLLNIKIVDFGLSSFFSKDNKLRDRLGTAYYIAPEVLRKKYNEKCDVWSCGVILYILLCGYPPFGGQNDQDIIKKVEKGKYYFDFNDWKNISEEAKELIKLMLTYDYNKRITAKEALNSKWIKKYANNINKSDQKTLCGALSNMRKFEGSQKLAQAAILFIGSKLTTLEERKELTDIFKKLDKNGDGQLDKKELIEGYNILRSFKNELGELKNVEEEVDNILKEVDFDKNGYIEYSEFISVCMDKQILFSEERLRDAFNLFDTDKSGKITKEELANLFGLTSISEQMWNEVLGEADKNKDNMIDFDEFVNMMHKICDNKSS
Lysine--tRNA ligase, sequence (Q8IDJ8 whole entry): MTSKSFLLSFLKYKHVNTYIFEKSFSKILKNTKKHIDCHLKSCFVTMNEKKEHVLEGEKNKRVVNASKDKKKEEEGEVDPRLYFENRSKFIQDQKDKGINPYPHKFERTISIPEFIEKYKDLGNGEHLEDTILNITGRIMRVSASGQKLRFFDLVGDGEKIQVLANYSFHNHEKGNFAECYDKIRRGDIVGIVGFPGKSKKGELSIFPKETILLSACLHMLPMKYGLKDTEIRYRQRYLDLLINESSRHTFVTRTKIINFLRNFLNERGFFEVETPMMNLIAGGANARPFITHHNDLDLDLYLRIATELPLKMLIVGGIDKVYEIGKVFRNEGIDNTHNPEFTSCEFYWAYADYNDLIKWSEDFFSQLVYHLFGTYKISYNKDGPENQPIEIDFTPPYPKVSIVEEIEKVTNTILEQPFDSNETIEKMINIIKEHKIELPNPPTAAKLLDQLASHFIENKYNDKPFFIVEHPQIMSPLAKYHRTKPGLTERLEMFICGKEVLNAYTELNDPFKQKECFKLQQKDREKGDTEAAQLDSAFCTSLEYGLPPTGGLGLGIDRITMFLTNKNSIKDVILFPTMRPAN

SMILES | pIC50 [1] | pIC50 [2] | pIC50 (Lysine--tRNA ligase) | pIC50 [3] | pIC50 (Proline--tRNA ligase) | pIC50 [4] | pIC50 [5]
OC(CNCC1CCCO1)Cn1c2ccc(Cl)cc2c2cc(Cl)ccc21 (centres undefined) | < 6.00 | < 6.00 | < 5.60 | < 6.00 | < 5.60 | < 6.00 | < 6.00
COc1ccc2nc(C)cc(Nc3ccccc3O)c2c1 | < 6.00 | < 6.00 | < 5.60 | < 6.00 | < 5.60 | < 6.00 | < 6.00
CCn1nc(-c2ccc(C(=O)OC)cc2)nc2c(=O)n(C)c(=O)nc1-2 | < 6.00 | < 6.00 | < 5.60 | < 6.00 | < 5.60 | < 6.00 | < 6.00
CC1(c2ccccc2)Nc2ccccc2-c2nc3ccccc3n21 (centres undefined) | < 6.00 | < 6.00 | < 5.60 | < 6.00 | < 5.60 | < 6.00 | < 6.00
CC(C)(C)CC(C)(C)NCC(O)COc1ccc(Cl)cc1Cl (centres undefined) | < 6.00 | < 6.00 | < 5.60 | < 6.00 | < 5.60 | < 6.00 | < 6.00
CCC(O)c1ccc(Br)cc1NC(=O)c1cccc(Cl)c1 (centres undefined) | < 6.00 | < 6.00 | < 5.60 | < 6.00 | < 5.60 | < 6.00 | < 6.00
CC(=O)Nc1nnc(SCc2c(C)cc(C(C)(C)C)cc2C)s1 | < 6.00 | < 6.00 | < 5.60 | < 6.00 | < 5.60 | < 6.00 | < 6.00
Cc1cc(Nc2cccc(F)c2)nc(NCc2ccccc2)n1 | < 6.00 | < 6.00 | < 5.60 | < 6.00 | < 5.60 | < 6.00 | < 6.00
O=C(Nc1cccc(-c2nc3ccccc3[nH]2)c1)c1cccc(NC(=O)c2ccco2)c1 | < 6.00 | < 6.00 | < 5.60 | < 6.00 | < 5.60 | < 6.00 | < 6.00
CCN(Cc1ccccc1)C1CCN(Cc2cc(Br)ccc2O)CC1 | < 6.00 | < 6.00 | < 5.60 | < 6.00 | < 5.60 | < 6.00 | < 6.00
Cc1cc(NC(=O)c2ccc(-c3ccccc3)cc2)no1 | < 6.00 | < 6.00 | < 5.60 | < 6.00 | < 5.60 | < 6.00 | < 6.00
O=C1CC(O)(C(F)(F)C(F)(F)F)Oc2ccccc21 (centres undefined) | < 6.00 | < 6.00 | < 5.60 | < 6.00 | < 5.60 | < 6.00 | < 6.00
COc1cc(SC)ccc1C(=O)N1CCCC(C)C1 (centres undefined) | < 6.00 | < 6.00 | < 5.60 | < 6.00 | < 5.60 | < 6.00 | < 6.00
Cc1ccc(NC(=O)Nc2cccc(Cl)c2)cc1F | < 6.00 | < 6.00 | < 5.60 | < 6.00 | < 5.60 | < 6.00 | < 6.00
O=c1nc(C=Cc2ccc(Cl)cc2)oc2ccccc12 | < 6.00 | < 6.00 | < 5.60 | < 6.00 | < 5.60 | < 6.00 | < 6.00
O=C(NCc1ccco1)C1CCN(S(=O)(=O)c2ccc(Br)cc2)CC1 | < 6.00 | < 6.00 | < 5.60 | < 6.00 | < 5.60 | < 6.00 | < 6.00
COc1ccc(Nc2nc(NCc3ccccc3)c3ccccc3n2)cc1 | < 6.00 | < 6.00 | < 5.60 | < 6.00 | < 5.60 | < 6.00 | < 6.00
COc1cc2c(cc1OC)C1=NNC(=O)C1=NC(C)(C)C2 | < 6.00 | < 6.00 | < 5.60 | < 6.00 | < 5.60 | < 6.00 | < 6.00
Oc1c2c(nc3cc(-c4ccccc4)nn13)CCCC2 | < 6.00 | < 6.00 | < 5.60 | < 6.00 | < 5.60 | < 6.00 | < 6.00
Cc1cc(N2CCN(C3CCCC3)CC2)n2c(nc3ccccc32)c1C#N | < 6.00 | < 6.00 | < 5.60 | < 6.00 | < 5.60 | < 6.00 | < 6.00
CCCCOc1ccc(C(=O)Nc2cc(C)on2)cc1 | < 6.00 | < 6.00 | < 5.60 | < 6.00 | < 5.60 | < 6.00 | < 6.00
CCN(CC)S(=O)(=O)c1ccc(-c2csc(Nc3ccc(C)c(C)c3)n2)cc1 | < 6.00 | < 6.00 | < 5.60 | < 6.00 | < 5.60 | < 6.00 | < 6.00
